According to ChEMBL document CHEMBL5241076, “Natural products and analogs as preventive agents for metabolic syndrome via peroxisome proliferator-activated receptors: An overview” (Eur J Med Chem, 2021):

How the values were obtained:
[1] = target: T1, Peroxisome proliferator-activated receptor gamma (Homo sapiens, UniProt P37231); assay: Binding affinity to PPARgamma (unknown origin)
T1 sequence (P37231 whole entry): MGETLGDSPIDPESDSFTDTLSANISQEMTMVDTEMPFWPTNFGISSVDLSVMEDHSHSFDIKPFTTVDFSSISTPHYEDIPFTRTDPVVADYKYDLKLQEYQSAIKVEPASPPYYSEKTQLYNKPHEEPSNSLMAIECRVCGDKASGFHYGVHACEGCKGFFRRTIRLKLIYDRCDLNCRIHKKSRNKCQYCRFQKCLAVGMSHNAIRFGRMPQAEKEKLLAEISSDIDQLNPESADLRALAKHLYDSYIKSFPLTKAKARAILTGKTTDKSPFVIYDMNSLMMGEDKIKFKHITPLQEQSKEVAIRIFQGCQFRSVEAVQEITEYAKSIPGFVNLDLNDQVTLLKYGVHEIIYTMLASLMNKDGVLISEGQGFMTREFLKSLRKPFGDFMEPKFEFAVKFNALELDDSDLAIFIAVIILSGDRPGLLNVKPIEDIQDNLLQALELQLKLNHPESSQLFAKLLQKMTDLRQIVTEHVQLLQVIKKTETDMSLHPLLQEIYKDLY

[2] = Cmax in Syrian hamster at 100 mg/kg, po; type: ADME, organism-based, Mesocricetus auratus; design: dose 100 mg/kg, route po; details: in vivo
[3] = Half life in Syrian hamster at 100 mg/kg, po; type: ADME, organism-based, Mesocricetus auratus; details: in vivo
[4] = target: T2, Peroxisome proliferator-activated receptor gamma (Homo sapiens) (UniProt P37231); assay: Agonist activity at PPARgamma (unknown origin) at 0.1 to 25 uM relative to control; details: dose 0.1-25 µM
T2 sequence (whole entry): T1 sequence (P37231 whole entry)

[5] = target: T3, Peroxisome proliferator-activated receptor alpha (Homo sapiens) (UniProt Q07869); assay: Agonist activity at PPARalpha (unknown origin) at 240 uM relative to control
T3 sequence (whole entry): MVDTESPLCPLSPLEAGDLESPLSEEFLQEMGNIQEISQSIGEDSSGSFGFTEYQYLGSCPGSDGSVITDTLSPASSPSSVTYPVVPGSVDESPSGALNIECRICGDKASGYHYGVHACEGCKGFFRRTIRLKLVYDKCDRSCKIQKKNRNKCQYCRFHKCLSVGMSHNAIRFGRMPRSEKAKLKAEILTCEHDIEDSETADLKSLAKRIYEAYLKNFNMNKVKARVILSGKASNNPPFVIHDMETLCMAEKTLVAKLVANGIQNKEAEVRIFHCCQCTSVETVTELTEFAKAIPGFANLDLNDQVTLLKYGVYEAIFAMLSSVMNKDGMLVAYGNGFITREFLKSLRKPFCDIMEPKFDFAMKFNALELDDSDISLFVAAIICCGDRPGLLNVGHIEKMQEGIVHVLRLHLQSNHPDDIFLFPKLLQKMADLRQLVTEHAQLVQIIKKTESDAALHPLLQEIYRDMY

[6] = target: T2, Peroxisome proliferator-activated receptor gamma (Homo sapiens); assay: Agonist activity at PPARgamma (unknown origin) at 80 uM relative to control; details: filed as agonist
[7] = target: T2, Peroxisome proliferator-activated receptor gamma (Homo sapiens); assay: Partial agonist activity at PPARgamma (unknown origin) relative to control
[8] = Cmax in mouse at 100 mg/kg, PO; type: ADME, organism-based; design: dose 100 mg/kg, route po; details: in vivo
[9] = Half life in mouse at 100 mg/kg, po; type: ADME, organism-based; details: in vivo
[10] = target: T4, Peroxisome proliferator-activated receptor delta (Homo sapiens, UniProt Q03181); assay: Agonist activity at PPARdelta (unknown origin)
T4 sequence (Q03181 whole entry): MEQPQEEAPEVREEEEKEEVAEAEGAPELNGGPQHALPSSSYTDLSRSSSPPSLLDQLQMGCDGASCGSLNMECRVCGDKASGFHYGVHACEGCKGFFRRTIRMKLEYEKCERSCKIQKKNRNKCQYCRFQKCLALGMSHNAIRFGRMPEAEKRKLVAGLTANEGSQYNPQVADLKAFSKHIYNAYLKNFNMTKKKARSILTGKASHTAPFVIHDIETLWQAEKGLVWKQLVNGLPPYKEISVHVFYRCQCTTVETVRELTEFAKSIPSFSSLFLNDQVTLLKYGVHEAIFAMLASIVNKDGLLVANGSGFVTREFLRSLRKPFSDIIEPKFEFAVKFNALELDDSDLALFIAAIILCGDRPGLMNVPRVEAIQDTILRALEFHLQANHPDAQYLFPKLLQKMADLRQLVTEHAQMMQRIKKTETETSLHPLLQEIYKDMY

[11] = target: T3, Peroxisome proliferator-activated receptor alpha (Homo sapiens); assay: Agonist activity at PPARalpha (unknown origin) relative to control; details: filed as agonist
[12] = target: T5, Peroxisome proliferator-activated receptor alpha (Homo sapiens, UniProt Q07869); assay: Binding affinity to PPARalpha (unknown origin)
T5 sequence (Q07869 whole entry): T3 sequence (whole entry)

[13] = target: T5, Peroxisome proliferator-activated receptor alpha; assay: Agonist activity at PPARalpha (unknown origin)
[14] = target: T3, Peroxisome proliferator-activated receptor alpha (Homo sapiens); assay: Agonist activity at PPARalpha (unknown origin) at 20 uM relative to control; details: filed as agonist
[15] = target: T6, Peroxisome proliferator-activated receptor delta (Homo sapiens) (UniProt Q03181); assay: Agonist activity at PPARdelta (unknown origin) at 20 uM relative to control; details: filed as agonist
T6 sequence (whole entry): T4 sequence (Q03181 whole entry)

In the case of CC(C)=CCC[C@@](C)(O)[C@H]1CC[C@]2(C)[C@@H]1[C@H](O)C[C@@H]1[C@@]3(C)CC[C@H](O)C(C)(C)[C@@H]3[C@@H](O)C[C@]12C, the Ki [1] is reported as 54.2 µM.

Work on COc1cc(/C=C/c2cc(/C=C/c3ccc(O)c(OC)c3)n(-c3ccc(Cl)c(Cl)c3)n2)ccc1O yielded a Cmax [2] of 1390 ng/mL and a half-life [3] of 2.8 h.

With CCCCCc1cc2c(c(O)c1C(=O)O)[C@@H]1C=C(C)CC[C@H]1C(C)(C)O2 the Activity [4] was 17%.

For O=C1C[C@@H](c2ccc(O)cc2)Oc2cc(O)cc(O)c21, the Activity [5] was 24% and the Activity [6] was 57%.

In the case of O=c1c(O)c(-c2ccc(O)c(O)c2)oc2cc(O)cc(O)c12, the Activity [7] is reported as 20%.

In the case of COc1cc(CCc2ccccc2)c(C(=O)O)c(O)c1CC=C(C)C [AMORFRUTIN A], the Cmax [8] is reported as 42400 ng/mL and the half-life [9] is reported as 2 h.

With COc1ccc2cc3[n+](cc2c1OC)CCc1cc2c(cc1-3)OCO2 [BERBERINE] the EC50 [10] was 14 µM, the Activity [11] was 102% and the Ki [12] was 0.73 µM. The EC50 [13] was 0.58 µM.

With C=C1CC/C=C(\C)CC[C@@H]2[C@@H]1CC2(C)C [BETA-CARYOPHYLLENE] the EC50 [13] was 9.58 µM.

COc1cc(/C=C/C(=O)CC(=O)/C=C/c2ccc(O)c(OC)c2)ccc1O [CURCUMIN] gave a Cmax [2] of 2.35 ng/mL.

O=c1c(O)c(-c2ccc(O)cc2)oc2cc(O)cc(O)c12 [KAEMPFEROL] showed an EC50 [10] of 341 µM, an EC50 [13] of 15.5 µM and an Activity [14] of 433%. It also gave an Activity [15] of 155% and an Activity ([7]; filed as partial agonist) of 45%.

With C=CCc1ccc(O)c(-c2cc(CC=C)ccc2O)c1 [MAGNOLOL] the EC50 [10] was 11.4 µM.

Compound Cc1coc2c1C(=O)C(=O)c1c-2ccc2c1CCCC2(C)C [TANSHINONE IIA] has a Ki [1] of 2.56 µM.
